Reference: US9051387B2, “Inhibition of MyBP-C binding to myosin as a treatment for heart failure” (Wisconsin Alumni Research Foundation, priority 2012, dated 2015)
Entries after “also recorded” stand apart in the source; their conditions may differ.

How the values were obtained:
mouse skinned myocardium [1] = assay: Relative effects of peptides on force at submaximal pCa (scaled to force at pCa 4.5); format: cell-based; conditions: FIG. 7, mouse, 50 μM, intermediate pCa; untreated force ~35% of maximum
Method: (§1) Skinned ventricular myocardium was prepared according to the protocol described by Chen et al. (2010). In brief, beating hearts were excised in vivo from anesthetized WT mice of either sex (˜6 months old) and dissected in Ca^2+-Ringer's solution containing 120 mM NaCl, 19 mM NaHCO3, 5 mM KCl, 1.2 mM Na2HPO4, 1.2 mM MgSO4, 1 mM CaCl2, and 10 mM glucose, pH 7.4 at 22° C., pre-equilibrated with 95% O2/5% CO2. Basal levels of RLC phosphorylation were reduced to uniformly low levels (i.e., <10%) as described previously (Olsson et al., 2004; Stelzer et al., 2006) by perfusing hemisected hearts with Ca^2+-Ringer's solution containing 30 mM 2,3-butanedione monoxime (BDM) for 30 minutes at 22° C. before rapid freezing in liquid nitrogen for storage prior to experimental measurements. […]
(§2) The force generating properties of murine or porcine skinned myocardium were measured as a function of free [Ca^2+] in activating solutions containing salts, a Ca^2+ buffer, and MgATP (Olsson et al., 2004). Free Ca^2+, expressed as −log [Ca^2+]free, was varied between sub-threshold (pCa 7.0) and saturating (pCa 4.5) levels with respect to force development. Measurements of isometric force as a function of pCa yielded force-pCa relationships, from which was determined the Ca^2+ sensitivity of force defined as the pCa at which force was half-maximal. […]

[2] = tested on: murine skinned myocardium; assay: Kinetics of force development (rate constant of force redevelopment, ktr); format: cell-based, mouse; conditions: 50 μM peptide, each pCa studied
Method: as §1, with “measurements. The dephosphorylation of RLC provides an appropriate background for assessment of the effects of the peptide, since RLC phosphorylation increases force production in heart muscle and speeds contraction and RLC phosphorylation is nearly nil in heart failure.” for “measurements.”
The kinetics of force development were assessed as a function of pCa by measuring the rate of force redevelopment at each pCa following a rapid slackening and re-stretch of the muscle during steady Ca^2+ activation (Olsson et al., 2004; Stelzer et al., 2006). […]

mouse skinned myocardium [3] = assay: Force-pCa relationship (Ca2+ sensitivity of force) in skinned myocardium; format: cell-based
Method: Skinned ventricular myocardium was prepared according to the protocol described by Chen et al. (2010). In brief, beating hearts were excised in vivo from anesthetized WT mice of either sex (˜6 months old) and dissected in Ca^2+-Ringer's solution containing 120 mM NaCl, 19 mM NaHCO3, 5 mM KCl, 1.2 mM Na2HPO4, 1.2 mM MgSO4, 1 mM CaCl2, and 10 mM glucose, pH 7.4 at 22° C., pre-equilibrated with 95% O2/5% CO2. Basal levels of RLC phosphorylation were reduced to uniformly low levels (i.e., <10%) as described previously (Olsson et al., 2004; Stelzer et al., 2006) by perfusing hemisected hearts with Ca^2+-Ringer's solution containing 30 mM 2,3-butanedione monoxime (BDM) for 30 minutes at 22° C. before rapid freezing in liquid nitrogen for storage prior to experimental measurements. The dephosphorylation of RLC provides an appropriate background for assessment of the effects of the peptide, since RLC phosphorylation increases force production in heart muscle and speeds contraction and RLC phosphorylation is nearly nil in heart failure.
On the day of an experiment, frozen ventricles were thawed and homogenized in ice-cold relaxing solution containing 100 mM KCl, 10 mM imidazole, 5 mM MgCl2, 2 mM EGTA, and 4 mMATP, pH 7.0 at 22° C. to yield multicellular preparations with dimensions of 600-900 μm×100-250 μm using a Polytron homogenizer. The cellular homogenates were then centrifuged and subsequently resuspended in ice-cold relaxing solution containing 250 μg/ml saponin and 1% Triton X-100 for 30 minutes at 4° C. […]
as §2

[4] = tested on: porcine skinned myocardium; assay: as above; format: cell-based, pig
Method: Skinned myocardial preparations were attached between a force transducer (for measurements of force) and a displacement motor (to impose rapid changes in length for measurements of the kinetics of force development) while in relaxing solution (Olsson et al., 2004). The temperature was then adjusted to 22° C. for measurements of the contractile properties of myocardium in the presence and absence of peptide.
The force generating properties of murine or porcine skinned myocardium were measured as a function of free [Ca^2+] in activating solutions containing salts, a Ca^2+ buffer, and MgATP (Olsson et al., 2004). Free Ca^2+, expressed as −log [Ca^2+]free, was varied between sub-threshold (pCa 7.0) and saturating (pCa 4.5) levels with respect to force development. Measurements of isometric force as a function of pCa yielded force-pCa relationships, from which was determined the Ca^2+ sensitivity of force defined as the pCa at which force was half-maximal.
The force and kinetic data presented in the following section were obtained from each muscle preparation first during maximal activation at pCa 4.5, next during submaximal activation at a pCa>4.5, and once again during activation at pCa 4.5. The preparation was then bathed in relaxing solution containing peptide, after which the identical activation sequence was imposed. Finally, the peptide was washed out of the preparation by repeated washings in relaxing solution so that control measurements could again be done in the absence of peptide. This bracketing protocol ensured that the results in the presence of peptide were corrected for time-dependent rundown of the preparations during the experiment.
Measurements of Ca^2+ sensitivity of force were also performed using skinned myocardium from pig hearts, since these hearts are more similar to human hearts with respect to protein isoform expression than are mouse hearts. Specifically, the principal myosin isoform in porcine and human hearts is the much slower β-cardiac myosin, while the principal isoform in mouse hearts is the faster α-cardiac myosin. […] The slower β-cardiac isoform would be predicted to have a greater activating effect on the cardiac thin filament due to the longer residency time of the slower myosin on the thin filament.

Q: With “FSSLLKKRDAFRRDAKLE (SEQ ID NO:47) [302A, 18-mer from cMyBP-C region 293-310 with S→A substitutions at positions 302 and 307]” as the sequence, how does the “force at pCa 5.9 (scaled to force at pCa 4.5), fold of control” value (mouse skinned myocardium [1]) read?
A: ~2 × control

Q: What about the “effect on rate constant of force development (ktr)” value [2] of the same sequence?
A: accelerated the rate of force development at each pCa studied; also recorded: increased at each pCa studied

Q: And the “increase in Ca2+ sensitivity of force” value (mouse skinned myocardium [3]; mouse myocardium, 50 μM peptide, versus control)?
A: 0.15 pCa units

Q: And the “pCa50 following treatment with peptide” value (mouse skinned myocardium [3]; mouse myocardium, 50 μM peptide, control 5.70±0.02)?
A: 5.85±0.02

Q: What about the “effect on force-pCa relationship” value (mouse skinned myocardium [3]; mouse skinned myocardium, peptide 50 μM) of the same sequence?
A: shift of the force-pCa relationship to lower Ca^2+ concentrations; also recorded: shifted to lower Ca^2+ concentrations

Q: And the “increase in Ca2+ sensitivity of force” value ([4]; porcine myocardium, 50 μM peptide, versus control)?
A: 0.32 pCa units

Q: And the “pCa50 following treatment with peptide” value ([4]; porcine myocardium, 50 μM peptide, control 5.60)?
A: 5.92

Q: What about the “effect of washout of the peptide” value ([4]; porcine myocardium, after 50 μM peptide) of the same sequence?
A: reversed the effect

Q: What about the “effects on force development, porcine versus murine” value ([4]; skinned myocardium, FIG. 3) of the same sequence?
A: significantly greater in porcine than in murine skinned myocardium
